Measured values from article PMC7536268, “Increased Antimicrobial Activity of Colistin in Combination With Gamithromycin Against Pasteurella multocida in a Neutropenic Murine Lung Infection Model” (Frontiers in Microbiology, 2020).
Read-outs that look alike come from different tables or passages of the source. Where a SMILES comes first, the peptide text is derived from it. Bridges are numbered along the chain shown (N, C = ends). [ ]: non-standard residue; d: D form. The star is where a group is joined. X1 = CC[C@H](C)CCCCC(=O)*; Dab = NCC[C@H](N)C(=O)O

What was measured:
[1] = tested on: Pasteurella multocida (D18, T5, and WJ11); assay: In vitro time-kill assays; format: cell-based; conditions: colistin alone 0.25-1 mg/L, 24 h, all strains (D18, T5, WJ11), inoculum ~5 × 10^6 CFU/mL
Description: In vitro time-kill assays were used to evaluate the effects of colistin alone and in combination with gamithromycin over 24 h. Three isolates of P. multocida (D18, T5, and WJ11) were tested. A P. multocida inoculum at ∼5 × 10^6 CFU/mL was treated with colistin alone at 0.25, 0.5, and 1 mg/L; gamithromycin alone at 0.125, 0.25, and 0.5 mg/L; and with colistin in combination with gamithromycin. At 0, 1, 2, 4, 6, 8, 12, and 24 h after incubation, 100-μL samples were taken from each tube for colony counting. A growth control without drug administration was included in all tests.

[2] = set-up: method as in Soon-Ee et al., 2015; conditions: ref Soon-Ee et al., 2015; cited from earlier work
[3] = In vitro plasma protein binding, equilibrium dialysis; format: in vitro ADME; conditions: 72 h at 4°C
Description: In vitro plasma protein-binding experiments for gamithromycin were conducted by adopting an equilibrium dialysis method for 72 h at 4°C. The corresponding unbound plasma PK parameters were obtained and used for the integration of PK and PD data.

[4] = tested on: P. multocida; set-up: method as in Benoit et al., 2011; conditions: P. multocida with erm(E); ref Benoit et al., 2011; cited from earlier work
Excerpt: Bovine respiratory disease (BRD) associated with Mannheimia haemolytica, P. multocida, and Histophilus somni is one of the most economically important diseases that occur in feedlots, and the global losses are estimated at over $3 billion per year ([Watts and Sweeney, 2010]).

[5] = tested on: Pasteurella multocida strains; assay: MIC by broth microdilution (CLSI); format: cell-based; conditions: drug alone, broth microdilution, Mueller-Hinton broth, triplicate
Description: The susceptibility of the selected P. multocida isolates and the quality control isolate (ATCC 25922) to colistin, gamithromycin, cefquinome, enrofloxacin, tilmicosin, tylosin tartrate, and florfenicol alone was determined using the microdilution method in broth (conducted in triplicate) according to the guiding principles of the CLSI. Based on the action mechanism of each drug, the antimicrobial activity of colistin or cefquinome (drug A) in combination with gamithromycin, enrofloxacin, tilmicosin, tylosin tartrate, or florfenicol (drug B) was determined with the checkerboard method, according to the minimal inhibitory concentration (MIC) of each drug. Briefly, 50 μL of MH II broth was added to each well, and 50 μL of the indicated concentration of colistin or cefquinome was added into the first well of each line. This was followed by multiproportion dilution. Next, 50-μL samples of different concentrations of gamithromycin or the other drugs mentioned above were added to the dilution medium, and a 100 μL inoculum with a cell density of ∼1 × 10^6 colony-forming units (CFU)/mL was added to each well. The plates were then incubated at 37°C for 24 h. According to the EUCAST definitive document E.Def 1.2 ([Mccullough, 2010]), the fractional inhibitory concentration (FIC) index for combined administrations was defined as the sum of the FIC of drug A and the FIC of drug B, where FIC is the MIC of the drug combined with other drugs, divided by the MIC of the drug alone.

[6] = tested on: Pasteurella multocida strains (D18, T5, and WJ11); assay: PK/PD relationship analysis (inhibitory Emax model, plasma AUC/MIC, target doses); format: in vivo; conditions: gamithromycin monotherapy; for Gamithromycin AUC/MIC required to reach 1-log10 kill / Gamithromycin AUC/MIC required to reach stasis: plasma AUC
Description: The relationship between the in vivo antimicrobial activity of gamithromycin alone or in combination with colistin and the ratio of plasma PK parameters to the MIC of gamithromycin was assessed. An inhibitory effect Emax model from the Phoenix WinNonlin identification module was used for analysis based on the equation: E = Emax − (Emax−E0) × Ce/(Ce + EC50), where E is the antimicrobial effect (i.e., the change in bacterial burden in CFU per lung), Emax is the change in log10 CFU/lung for control groups, […], Ce is the PK/PD index under analysis, and EC50 is the Ce value at 50% of E0.
Integration of PK and PD data is important for clinical drug administration ([Toutain et al., 2002]). Herein, PK values in plasma were used to calculate the PK/PD index, which was integrated with changes in bacteria log10 CFU/lung. Antimicrobials that achieve significant PAE values are generally described as concentration-dependent ([Jacobs, 2004]).

[7] = cattle, SC 6 mg/kg; ref Steeve et al., 2011; cited from earlier work
[8] = swine, SC 6 mg/kg; ref Wyns et al., 2014; cited from earlier work
[9] = strain D18, lungs of mice, n = 4
[10] = strain T5, lungs of mice, n = 4
[11] = strain WJ11, lungs of mice, n = 4

Structure (SMILES): CC[C@H](C)CCCCC(=O)N[C@@H](CCN)C(=O)N[C@H](C(=O)N[C@@H](CCN)C(=O)N[C@H]1CCNC(=O)[C@H]([C@@H](C)O)NC(=O)[C@H](CCN)NC(=O)[C@H](CCN)NC(=O)[C@H](CC(C)C)NC(=O)[C@@H](CC(C)C)NC(=O)[C@H](CCN)NC1=O)[C@@H](C)O [Colistin] (X1-[Dab]T[Dab][Dab][Dab][dL]L[Dab][Dab]T; lactam 4-C)
- time-kill outcome [1]: incapable of controlling bacterial growth
- unbound extent in plasma [2]: 8.4%

Structure (SMILES): CCCN1C[C@H](C)[C@@H](O)[C@](C)(O)[C@@H](CC)OC(=O)[C@H](C)[C@@H](O[C@H]2C[C@@](C)(OC)[C@@H](O)[C@H](C)O2)[C@H](C)[C@@H](O[C@@H]2O[C@H](C)C[C@H](N(C)C)[C@H]2O)[C@](C)(O)C[C@H]1C [Gamithromycin]
- plasma protein binding extent [3]: 13.83%
- MIC [4]: ≥ 512 µg/mL
- MIC ([5]; strain CVCC 444): 0.5 µg/mL
- MIC ([5]; strain D18): 0.5 µg/mL
- MIC ([5]; strain PmP2 (pig)): 0.5 µg/mL
- MIC ([5]; strain PmP17 (pig)): 0.5 µg/mL
- MIC ([5]; strain T5): 0.5 µg/mL
- MIC ([5]; strain WJ11): 0.5 µg/mL
- MIC ([5]; strain WN71): 0.5 µg/mL
- MIC ([5]; strain WW81): 0.5 µg/mL
- MIC ([5]; strain XX12): 0.5 µg/mL
- Gamithromycin dose required to reach 1-log10 kill ([6]; Mean ± SD of D18, T5, WJ11, SD): 67.11 ± 6.01 mg/kg
- Gamithromycin dose required to reach stasis ([6]; Mean ± SD of D18, T5, WJ11, SD): 18.43 ± 3.10 mg/kg
- Gamithromycin dose required to reach 1-log10 kill [6, 9]: 65.32 mg/kg
- Gamithromycin dose required to reach stasis [6, 9]: 17.99 mg/kg
- Gamithromycin AUC/MIC required to reach 1-log10 kill ([6]; strain D18, n = 4): 36.74
- Gamithromycin AUC/MIC required to reach stasis ([6]; strain D18, n = 4): 10.33
- Gamithromycin dose required to reach 1-log10 kill [6, 10]: 73.80 mg/kg
- Gamithromycin dose required to reach stasis [6, 10]: 21.73 mg/kg
- Gamithromycin AUC/MIC required to reach 1-log10 kill ([6]; strain T5, n = 4): 41.51
- Gamithromycin AUC/MIC required to reach stasis ([6]; strain T5, n = 4): 12.47
- Gamithromycin dose required to reach 1-log10 kill [6, 11]: 62.19 mg/kg
- Gamithromycin dose required to reach stasis [6, 11]: 15.58 mg/kg
- Gamithromycin AUC/MIC required to reach 1-log10 kill ([6]; strain WJ11, n = 4): 34.98
- Gamithromycin AUC/MIC required to reach stasis ([6]; strain WJ11, n = 4): 8.11
- AUClast [7]: 7.82 mg⋅h/L
- AUClast [8]: 3.48 mg⋅h/L
